According to ChEMBL document CHEMBL4622979, “Non-rigid Diarylmethyl Analogs of Baloxavir as Cap-Dependent Endonuclease Inhibitors of Influenza Viruses” (J Med Chem, 2020):
Active and inactive are the calls of the source. The calls are words filed in the database; no cut-off is given here.

Key:
[1] = Protein binding in human plasma at 1 uM measured after 4 hrs by LC-MS/MS analysis; format: ADME, cell-free; settings: read-out: PPB (converted)
[2] = Protein binding in mouse plasma at 1 uM measured after 4 hrs by LC-MS/MS analysis; format: ADME, cell-free; settings: read-out: PPB (converted)
[3] = Elimination rate constant in CD1 mouse plasma assessed as (12aR)-12-(Diphenylmethyl)-7-hydroxy-3,4,12,12a-tetrahydro-1H-[1,4]oxazino[3,4-c]pyrido[2,1-f ][1,2,4]triazine-6,8-dione level at 15 mg/kg, po administered as single dose measured up to 24 hrs by LC-MS/MS analysis; format: ADME, organism-based; settings: in vivo
[4] = Cytotoxicity against human HepG2 cells assessed as reduction in cell viability measured after 24 hrs in presence of glucose by MTT assay; format: cell-based
[5] = Stability in simulated intestinal fluid assessed as parent compound remaining at 1 uM measured after 4 hrs at pH 1.2 by LC-MS/MS analysis; format: physicochemical; settings: read-out: Stability
Influenza A virus [6] = test: (§1) Antiviral activity against Influenza A/California/04/2009 (H1N1)pdm09 infected in specific pathogen-free BALB/c mouse assessed as protection against virus-induced mouse death at 50 mg/kg, po administered via gavage immediately after infection and at 12 hrs post-infection measured on 16 days post-infection relative to control; format: functional
[7] = Protein binding in rat plasma at 1 uM measured after 4 hrs by LC-MS/MS analysis; format: ADME, cell-free; settings: read-out: PPB (converted)
[8] = Toxicity in Influenza A/California/04/2009 (H1N1)pdm09 infected specific pathogen-free BALB/c mouse assessed as effect on body weight at 20 to 50 mg/kg, po administered via gavage immediately after infection and at 12 hrs post-infection measured after 10 days post-infection; format: organism-based; settings: in vivo, 240 h
[9] = Stability in simulated gastric fluid assessed as parent compound remaining at 1 uM measured after 4 hrs at pH 1.2 by LC-MS/MS analysis; format: physicochemical; settings: read-out: Stability
[10] = AUCinfinity in CD1 mouse trachea assessed as (12aR)-12-(Diphenylmethyl)-7-hydroxy-3,4,12,12a-tetrahydro-1H-[1,4]oxazino[3,4-c]pyrido[2,1-f ][1,2,4]triazine-6,8-dione level at 15 mg/kg, po administered as single dose measured up to 24 hrs by LC-MS/MS analysis; format: ADME, organism-based; design: dose 15 mg/kg, route oral, time infinity; settings: in vivo
[11] = Acute toxicity in CD1 mouse assessed as effect on food consumption at 2000 mg/kg, po measured for 2 weeks; format: organism-based; settings: in vivo, 336 h
[12] = MRTlast in CD1 mouse liver assessed as (12aR)-12-(Diphenylmethyl)-7-hydroxy-3,4,12,12a-tetrahydro-1H-[1,4]oxazino[3,4-c]pyrido[2,1-f ][1,2,4]triazine-6,8-dione level at 15 mg/kg, po administered as single dose measured up to 24 hrs by LC-MS/MS analysis; format: ADME, organism-based; settings: in vivo
[13] = MRTlast in CD1 mouse blood assessed as (12aR)-12-(Diphenylmethyl)-7-hydroxy-3,4,12,12a-tetrahydro-1H-[1,4]oxazino[3,4-c]pyrido[2,1-f ][1,2,4]triazine-6,8-dione level at 15 mg/kg, po administered as single dose measured up to 24 hrs by LC-MS/MS analysis; format: ADME, organism-based; settings: in vivo
[14] = Half life in CD1 mouse blood assessed as (12aR)-12-(Diphenylmethyl)-7-hydroxy-3,4,12,12a-tetrahydro-1H-[1,4]oxazino[3,4-c]pyrido[2,1-f ][1,2,4]triazine-6,8-dione level at 15 mg/kg, po administered as single dose measured up to 24 hrs by LC-MS/MS analysis; format: ADME, organism-based; settings: in vivo
[15] = Cmax in CD1 mouse liver assessed as (12aR)-12-(Diphenylmethyl)-7-hydroxy-3,4,12,12a-tetrahydro-1H-[1,4]oxazino[3,4-c]pyrido[2,1-f ][1,2,4]triazine-6,8-dione level at 15 mg/kg, po administered as single dose measured up to 24 hrs by LC-MS/MS analysis; format: ADME, organism-based; design: dose 15 mg/kg, route oral; settings: in vivo
Influenza A virus [16] = test: as §1, with “20” for “50”; format: functional
[17] = Elimination rate constant in CD1 mouse liver assessed as (12aR)-12-(Diphenylmethyl)-7-hydroxy-3,4,12,12a-tetrahydro-1H-[1,4]oxazino[3,4-c]pyrido[2,1-f ][1,2,4]triazine-6,8-dione level at 15 mg/kg, po administered as single dose measured up to 24 hrs by LC-MS/MS analysis; format: ADME, organism-based; settings: in vivo
[18] = Tmax in CD1 mouse kidney assessed as (12aR)-12-(Diphenylmethyl)-7-hydroxy-3,4,12,12a-tetrahydro-1H-[1,4]oxazino[3,4-c]pyrido[2,1-f ][1,2,4]triazine-6,8-dione level at 15 mg/kg, po administered as single dose measured up to 24 hrs by LC-MS/MS analysis; format: ADME, organism-based; settings: in vivo
[19] = Elimination rate constant in CD1 mouse heart assessed as (12aR)-12-(Diphenylmethyl)-7-hydroxy-3,4,12,12a-tetrahydro-1H-[1,4]oxazino[3,4-c]pyrido[2,1-f ][1,2,4]triazine-6,8-dione level at 15 mg/kg, po administered as single dose measured up to 24 hrs by LC-MS/MS analysis; format: ADME, organism-based; settings: in vivo
[20] = Cmax in CD1 mouse lung assessed as (12aR)-12-(Diphenylmethyl)-7-hydroxy-3,4,12,12a-tetrahydro-1H-[1,4]oxazino[3,4-c]pyrido[2,1-f ][1,2,4]triazine-6,8-dione level at 15 mg/kg, po administered as single dose measured up to 24 hrs by LC-MS/MS analysis; format: ADME, organism-based; design: dose 15 mg/kg, route oral; settings: in vivo
[21] = Tmax in CD1 mouse heart assessed as (12aR)-12-(Diphenylmethyl)-7-hydroxy-3,4,12,12a-tetrahydro-1H-[1,4]oxazino[3,4-c]pyrido[2,1-f ][1,2,4]triazine-6,8-dione level at 15 mg/kg, po administered as single dose measured up to 24 hrs by LC-MS/MS analysis; format: ADME, organism-based; settings: in vivo
Influenza A virus [22] = test: Antiviral activity against Influenza A/California/04/2009 (H1N1)pdm09 infected in specific pathogen-free BALB/c mouse assessed as reduction in virus titre in lung at 50 mg/kg, po administered via gavage immediately after infection and at 12 hrs post-infection measured 24 hrs post-infection; format: functional, organism-based
[23] = Half life in CD1 mouse blood assessed as baloxavir acid level at 15 mg/kg, po administered as single dose measured up to 24 hrs by LC-MS/MS analysis; format: ADME, organism-based; settings: in vivo
[24] = Elimination rate constant in CD1 mouse spleen assessed as baloxavir acid level at 15 mg/kg, po administered as single dose measured up to 24 hrs by LC-MS/MS analysis; format: ADME, organism-based; settings: in vivo
[25] = Tmax in CD1 mouse spleen assessed as baloxavir acid level at 15 mg/kg, po administered as single dose measured up to 24 hrs by LC-MS/MS analysis; format: ADME, organism-based; settings: in vivo
[26] = Tmax in CD1 mouse brain assessed as baloxavir acid level at 15 mg/kg, po administered as single dose measured up to 24 hrs by LC-MS/MS analysis; format: ADME, organism-based; settings: in vivo
[27] = Elimination rate constant in CD1 mouse heart assessed as baloxavir acid level at 15 mg/kg, po administered as single dose measured up to 24 hrs by LC-MS/MS analysis; format: ADME, organism-based; settings: in vivo

In the case of `COC(=O)OCOc1c2n(ccc1=O)N(C(c1ccccc1)c1ccccc1)[C@@H]1COCCN1C2=O`, the fraction unbound at 4 h, 1 µM [1] is reported as 0.01, the fraction unbound at 4 h, 1 µM [2] is reported as 0.009 and the Kel [3] is reported as 0.44 h⁻¹. It also gave a CC50 at 24 h [4] of 51 µM, a remaining at 4 h, 1 µM [5] of 93.7% and an Activity (Influenza A virus [6]) of 80%. For the same compound, the fraction unbound at 4 h, 1 µM [7] was 0.016, the Activity [8] was “Non-Toxic” and the remaining at 4 h, 1 µM [9] was 94.8%. The AUC [10] was 10875 ng·h/g, the Activity [11] was “Non-Toxic” and the MRTlast [12] was 2.31 h. It also gave an MRTlast [13] of 1.78 h, a t1/2 [14] of 1.74 h and a Cmax [15] of 12775 ng/g. For the same compound, the Activity (Influenza A virus [16]) was 80%, the Kel [17] was 0.3 h⁻¹ and the Tmax [18] was 0.5 h. It also gave a Kel [19] of 0.41 h⁻¹, a Cmax [20] of 2847 ng/g and a Tmax [21] of 0.5 h. The Activity (Influenza A virus [22]) was “Active”.
Work on `COC(=O)OCOc1c2n(ccc1=O)N([C@@H]1c3ccccc3SCc3c1ccc(F)c3F)[C@@H]1COCCN1C2=O` [BALOXAVIR MARBOXIL] yielded a fraction unbound at 4 h, 1 µM [1] of 0.057, a fraction unbound at 4 h, 1 µM [2] of 0.08 and a t1/2 [23] of 3.29 h. The remaining at 4 h, 1 µM [5] was 87.9%, the Kel [24] was 0.2 h⁻¹ and the Activity (Influenza A virus [6]) was 90%. For the same compound, the fraction unbound at 4 h, 1 µM [7] was 0.064, the Activity [8] was “Non-Toxic” and the remaining at 4 h, 1 µM [9] was 101%. The Tmax [25] was 2 h, the Tmax [26] was 2 h and the Activity (Influenza A virus [16]) was 80%. For the same compound, the Kel [27] was 0.2 h⁻¹ and the Activity (Influenza A virus [22]) was “Active”.
